Measured values as given in ChEMBL document CHEMBL1155335, “Studies towards topical selective beta2-adrenoceptor agonists with a long duration of action” (Bioorg Med Chem Lett, 2009).
Calls of active or inactive are those of the source. The calls are words filed in the database; no cut-off is given here.

Assays:
[1] = test system: Cavia porcellus; test: Bronchoprotective activity in guinea pig assessed as inhibition of acetylcholine-induced increase in pulmonary resistance at 3 ug/kg, intratracheally after 5 hrs; format: functional, organism-based
[2] = test system: Cavia porcellus; test: Toxicity in guinea pig assessed as increase in heart rate at 10 ug/kg, intratracheally after 90 mins; format: organism-based; conditions: in vivo, inhaled_or_intranasal, 0.01 mg/kg, 1.5 h
[3] = test system: Cavia porcellus; test: Bronchoprotective activity in intratracheally dosed guinea pig assessed as inhibition of acetylcholine-induced increase in pulmonary resistance after 5 hrs; format: functional, organism-based
[4] = test system: Cavia porcellus; test: Toxicity in intratracheally dosed guinea pig assessed as increase in heart rate after 10 to 20 mins; format: organism-based; conditions: in vivo, inhaled_or_intranasal
[5] = target: Beta-2 adrenergic receptor (Homo sapiens, UniProt P07550)
Description: Agonist activity at human beta2 adrenoceptor expressed in CHOK1 cell assessed as increase of intracellular cAMP level

[6] = organism: Homo sapiens; test: Selectivity ratio, EC50 for human beta-1 adrenoceptor to EC50 for human beta2 adrenoceptor
[7] = target: Beta-1 adrenergic receptor (Homo sapiens, UniProt P08588)
Description: Agonist activity at human beta-1 adrenoceptor expressed in CHOK1 cell assessed as increase of intracellular cAMP level

[8] = test system: Cavia porcellus; test: Bronchoprotective activity in guinea pig assessed as inhibition of acetylcholine-induced increase in pulmonary resistance at 10 ug/kg, intratracheally after 5 hrs; format: functional; set-up: scale not given: the % may be the effect or the level left
[9] = test system: Cavia porcellus; test: Toxicity in guinea pig assessed as increase in heart rate at 3 ug/kg, intratracheally after 90 mins; format: organism-based; conditions: in vivo, inhaled_or_intranasal, 0.003 mg/kg, 1.5 h

Chain of Beta-2 adrenergic receptor (P07550 whole entry): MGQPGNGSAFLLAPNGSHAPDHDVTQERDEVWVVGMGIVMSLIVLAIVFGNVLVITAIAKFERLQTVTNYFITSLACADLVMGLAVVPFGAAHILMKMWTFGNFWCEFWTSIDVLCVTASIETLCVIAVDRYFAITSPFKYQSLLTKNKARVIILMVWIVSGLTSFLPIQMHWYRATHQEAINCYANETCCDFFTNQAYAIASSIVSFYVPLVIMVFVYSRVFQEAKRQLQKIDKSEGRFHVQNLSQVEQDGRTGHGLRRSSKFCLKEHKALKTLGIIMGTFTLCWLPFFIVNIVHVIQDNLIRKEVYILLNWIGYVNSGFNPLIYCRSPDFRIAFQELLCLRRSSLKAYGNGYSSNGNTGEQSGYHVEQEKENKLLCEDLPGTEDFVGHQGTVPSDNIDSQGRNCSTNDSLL
Chain of Beta-1 adrenergic receptor (P08588 whole entry): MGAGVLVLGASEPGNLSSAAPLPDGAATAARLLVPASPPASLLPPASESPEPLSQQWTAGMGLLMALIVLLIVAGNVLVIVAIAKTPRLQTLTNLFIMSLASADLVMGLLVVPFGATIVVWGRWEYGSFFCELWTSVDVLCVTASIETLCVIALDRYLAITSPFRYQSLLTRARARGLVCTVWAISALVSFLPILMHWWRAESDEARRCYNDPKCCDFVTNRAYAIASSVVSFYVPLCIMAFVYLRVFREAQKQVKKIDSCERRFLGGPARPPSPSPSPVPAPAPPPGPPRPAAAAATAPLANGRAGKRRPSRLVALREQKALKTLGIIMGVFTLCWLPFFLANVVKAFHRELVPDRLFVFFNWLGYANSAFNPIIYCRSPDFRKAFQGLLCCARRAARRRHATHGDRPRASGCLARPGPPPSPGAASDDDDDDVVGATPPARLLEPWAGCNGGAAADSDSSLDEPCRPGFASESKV

SMILES	Activity [1]	Activity [2] [%]	Activity [3]	Activity [4]	EC50 [5] [nM]	Ratio EC50 [6]	EC50 [7] [nM]	Activity [8] [%]	Activity [9]
CC(C)(Cc1ccc(NC(=O)CCCNC(=N)N)cc1)NCC(O)c1ccc(O)c2c1OCC(=O)N2 (centres undefined)	Active	> 10	Dose-dependent effect	Toxic	1	1.8	1.8	100	–
CC(C)(Cc1ccc(NC(=O)CCCNC(=O)CCN)cc1)NCC(O)c1ccc(O)c2c1OCC(=O)N2 (centres undefined)	–	–	–	–	0.9	5.1	4.6	–	–
CC(C)(Cc1ccc(NC(=O)CCCNC(=N)N)cc1)NCC(O)c1cc(O)cc2c1OCC(=O)N2 (centres undefined)	–	–	–	–	–	4.4	–	–	–
CC(C)(Cc1ccc(NC(=O)CCCNC(=O)C[N+](C)(C)C)cc1)NCC(O)c1ccc(O)c2c1OCC(=O)N2 (centres undefined)	–	–	–	–	1	3.5	3.5	–	–
CC(C)(Cc1ccc(NC(=O)CCCNC(=O)C(N)CCCN)cc1)NCC(O)c1ccc(O)c2c1OCC(=O)N2 (centres undefined)	Active	> 10	Dose-dependent effect	Toxic	5.4	4.4	24	100	–
CC(C)(Cc1ccc(NC(=O)CCCN)cc1)NCC(O)c1ccc(O)c2c1OCC(=O)N2 (centres undefined)	–	–	–	–	1.1	3.1	3.4	–	–
CN1CCN(CC(=O)NCCCC(=O)Nc2ccc(CC(C)(C)NCC(O)c3ccc(O)c4c3OCC(=O)N4)cc2)CC1 (centres undefined)	–	–	–	–	1.2	4.8	5.7	–	–
CN(C)CC(=O)NCCCC(=O)Nc1ccc(CC(C)(C)NCC(O)c2ccc(O)c3c2OCC(=O)N3)cc1 (centres undefined)	–	–	–	–	0.5	10.6	5.3	–	–
CC(C)(Cc1ccc(NC(=O)CCCN)cc1)NCC(O)c1cc(O)cc2c1OCC(=O)N2 (centres undefined)	–	–	–	–	9	1.2	11	–	–
CC(C)(Cc1ccc(NC(=O)CCCN=C(N)N)cc1)NCC(O)c1cc(O)cc2c1OCC(=O)N2 (centres undefined)	–	–	–	–	4.1	–	18	–	–
CC(C)(Cc1ccc(NC(=O)CCCNCCCS(=O)(=O)O)cc1)NCC(O)c1ccc(O)c2c1OCC(=O)N2 (centres undefined)	–	–	Dose-dependent effect	Toxic	1.8	5.5	9.9	–	Active
CC(C)(Cc1ccc(NC(=O)CCCNC(=O)CN)cc1)NCC(O)c1ccc(O)c2c1OCC(=O)N2 (centres undefined)	Active	> 10	Dose-dependent effect	Toxic	1.2	3.8	4.5	100	–
CC(C)(Cc1ccc(NC(=O)CCCNC(=O)C[N+](C)(C)C)cc1)NCC(O)c1cc(O)cc2c1OCC(=O)N2 (centres undefined)	–	–	–	–	11.6	2.4	28	–	–
